ChEMBL document CHEMBL1129858, “Antitumor agents. 1771. Design, syntheses, and biological evaluation of novel etoposide analogs bearing pyrrolecarboxamidino group as DNA topoisomerase II inhibitors” (1997)

Assays:
ACHN = experiment: Tested for the in vitro cytotoxicity against ACHN renal cancer cell line; format: functional, Homo sapiens
DU-145 = experiment: Tested for the in vitro cytotoxicity against DU-145 prostate cancer cell line; format: functional, Homo sapiens
HCC 2998 = experiment: Tested for the in vitro cytotoxicity against HCC2998 colon cancer cell lines; format: functional, Homo sapiens
M14 = experiment: Tested for the in vitro cytotoxicity against M-14 melanoma; format: functional, Homo sapiens
MCF7 = experiment: Tested for the in vitro cytotoxicity against MCF-7 breast cancer cell line; format: functional, Homo sapiens
MOLT-4 = experiment: Tested for the in vitro cytotoxicity against MOLT-4 leukemia cell line; format: functional, Homo sapiens
OVCAR-8 = experiment: Tested for the in vitro cytotoxicity against OVCAR-8 ovarian cancer cell lines,; format: functional, Homo sapiens
NCI-H23 = experiment: Tested for the in vitro cytotoxicity against NCI-H23 non-small cell lung cancer cell line; format: functional, Homo sapiens
SF-295 = experiment: Tested for the in vitro cytotoxicity against SF-295 CNS tumor cell lines; format: functional, Homo sapiens
[1] = Average in vitro cytotoxicity was calculated from all cell lines tested,; format: functional
[2] = Average in vitro cytotoxicity was calculated from all cell lines tested; format: functional
[3] = Average in vitro cytotoxicity was calculated from all cell lines tested, activity expressed as average log TGI50.; format: functional; conditions: read-out: Log TGI (converted)
[4] = molecular target: DNA topoisomerase II (Homo sapiens) (UniProt P11388+Q02880); experiment: Tested for the inhibition of DNA topoisomerase II; format: protein assay
KB [5] = experiment: Tested for the cellular protein DNA complex formation in KB cells at concentration of 25 uM; format: functional, Homo sapiens
KB [6] = experiment: Tested for the cellular protein DNA complex formation in KB cells at the concentration of 2.5 uM; format: functional, Homo sapiens
KB [7] = experiment: Tested for the cytotoxicity against KB cells; ID50/LD50 = 0.08/>10; format: functional, cell-based; conditions: Homo sapiens
KB [8] = experiment: Tested for the cytotoxicity against KB-7d cellsTested for the cytotoxicity against KB cells; ID50/LD50 = 0.2/>10; format: functional, cell-based
KB [9] = experiment: Tested for the cellular protein DNA complex formation in KB cells at the concentration of 2.5 uM
KB [10] = experiment: Tested for the cellular protein DNA complex formation in KB cells at concentration of 2.5 uM; format: functional, Homo sapiens

COc1cc([C@@H]2c3cc4c(cc3[C@@H](NCCNCCO)[C@H]3COC(=O)[C@H]23)OCO4)cc(OC)c1O [listing 1 of 2 here]
GI50 (ACHN): 2340 nM
GI50 (DU-145; Homo sapiens, DU-145): 2750 nM
GI50 (HCC 2998; Homo sapiens, HCC 2998): 1260 nM
GI50 (M14; Homo sapiens, M14): 3980 nM
GI50 (MCF7): 38.9 nM
GI50 (MOLT-4): < 10 nM
GI50 (OVCAR-8; Homo sapiens, OVCAR-8): 2630 nM
GI50 (NCI-H23; Homo sapiens, NCI-H23): 1320 nM
GI50 (SF-295): 178 nM
GI50 [1]: 1350 nM
LC50 [2]: 66100 nM
TGI [3]: 12000 nM

COc1cc([C@@H]2c3cc4c(cc3[C@@H](O[C@@H]3O[C@@H]5CO[C@@H](C)O[C@H]5[C@H](O)[C@H]3O)[C@H]3COC(=O)[C@H]23)OCO4)cc(OC)c1O [ETOPOSIDE]
GI50 (ACHN; Homo sapiens, ACHN): 871 nM
IC100 [4]: 100 µM
GI50 (DU-145; Homo sapiens, DU-145): 851 nM
GI50 (HCC 2998; Homo sapiens, HCC 2998): 18200 nM
Activity (KB [5]): 100%
Activity (KB [6]): 100%
GI50 (M14; Homo sapiens, M14): 813 nM
GI50 (MCF7; Homo sapiens, MCF7): 4370 nM
GI50 (MOLT-4; Homo sapiens, MOLT-4): 1020 nM
GI50 (OVCAR-8; Homo sapiens, OVCAR-8): 16600 nM
GI50 (NCI-H23; Homo sapiens, NCI-H23): 8320 nM
GI50 (SF-295; Homo sapiens, SF-295): 10000 nM
GI50 [1]: 9770 nM
TGI [3]: 77600 nM

COc1cc([C@@H]2c3cc4c(cc3[C@@H](Nc3ccc(NC(=O)c5cc(NC(=O)c6cc([N+](=O)[O-])cn6C)cn5C)cc3)[C@H]3COC(=O)[C@H]23)OCO4)cc(OC)c1O
GI50 (ACHN; Homo sapiens, ACHN): 229 nM
IC100 [4]: 100 µM
GI50 (DU-145; Homo sapiens, DU-145): 372 nM
GI50 (HCC 2998; Homo sapiens, HCC 2998): 6030 nM
Cytotoxicity (KB [7]): ID50/LD50 = 0.08/>10
Activity (KB [5]): 26%
GI50 (M14; Homo sapiens, M14): 5500 nM
GI50 (MCF7; Homo sapiens, MCF7): 47.9 nM
GI50 (MOLT-4; Homo sapiens, MOLT-4): < 10 nM
GI50 (OVCAR-8; Homo sapiens, OVCAR-8): 759 nM
GI50 (NCI-H23; Homo sapiens, NCI-H23): 724 nM
GI50 (SF-295; Homo sapiens, SF-295): 4900 nM
GI50 [1]: 1170 nM
LC50 [2]: 81300 nM
TGI [3]: 28800 nM
Ratio (KB [8]): ID50/LD50 = 0.2/>10
Activity (KB [9]): 30%

COc1cc([C@@H]2c3cc4c(cc3[C@@H](NC(=O)NO)[C@H]3COC(=O)[C@H]23)OCO4)cc(OC)c1O
GI50 (ACHN; Homo sapiens, ACHN): 6030 nM
GI50 (DU-145; Homo sapiens, DU-145): 7240 nM
GI50 (HCC 2998; Homo sapiens, HCC 2998): 4070 nM
GI50 (M14; Homo sapiens, M14): 37200 nM
GI50 (MCF7; Homo sapiens, MCF7): 7760 nM
GI50 (MOLT-4; Homo sapiens, MOLT-4): 4900 nM
GI50 (OVCAR-8; Homo sapiens, OVCAR-8): 34700 nM
GI50 (NCI-H23; Homo sapiens, NCI-H23): 9330 nM
GI50 (SF-295; Homo sapiens, SF-295): 5010 nM
GI50 [1]: 9770 nM
LC50 [2]: 100000 nM
TGI [3]: 93300 nM

COc1cc([C@@H]2c3cc4c(cc3[C@@H](Nc3ccc(NC(=O)c5cc([N+](=O)[O-])cn5C)cc3)[C@H]3COC(=O)[C@H]23)OCO4)cc(OC)c1O [listing 1 of 3 here]
GI50 (ACHN; Homo sapiens, ACHN): 11.8 nM
GI50 (DU-145; Homo sapiens, DU-145): 17 nM
GI50 (HCC 2998; Homo sapiens, HCC 2998): 224 nM
Activity (KB [10]): 225%
Activity (KB [5]): 100%
GI50 (M14; Homo sapiens, M14): 45.7 nM
GI50 (MCF7; Homo sapiens, MCF7): < 10 nM
GI50 (MOLT-4; Homo sapiens, MOLT-4): < 10 nM
GI50 (OVCAR-8; Homo sapiens, OVCAR-8): 97.7 nM
GI50 (NCI-H23; Homo sapiens, NCI-H23): 49 nM
GI50 (SF-295): 51.3 nM
GI50 [1]: 123 nM
TGI [3]: 1950 nM

COc1cc([C@@H]2c3cc4c(cc3[C@@H](Nc3ccc(NC(=O)c5cc([N+](=O)[O-])cn5C)cc3)[C@H]3COC(=O)[C@H]23)OCO4)cc(OC)c1O [listing 2 of 3 here]
IC100 [4]: 12.5 µM

COc1cc([C@@H]2c3cc4c(cc3[C@@H](NCCNCCO)[C@H]3COC(=O)[C@H]23)OCO4)cc(OC)c1O [listing 2 of 2 here]
GI50 (ACHN): 339 nM
GI50 (DU-145): 2290 nM
GI50 (HCC 2998): 3390 nM
GI50 (M14): 4070 nM
GI50 (MCF7): 95.5 nM
GI50 (MOLT-4): 26.9 nM
GI50 (OVCAR-8): 2400 nM
GI50 (NCI-H23): 661 nM
GI50 (SF-295): 1020 nM
GI50 [1]: 1860 nM
LC50 [2]: 83200 nM
TGI [3]: 21400 nM

COc1cc([C@@H]2c3cc4c(cc3[C@@H](Nc3ccc(NC(=O)c5cc([N+](=O)[O-])cn5C)cc3)[C@H]3COC(=O)[C@H]23)OCO4)cc(OC)c1O [listing 3 of 3 here]
GI50 (ACHN): 14.1 nM
GI50 (DU-145): 14.4 nM
GI50 (HCC 2998): 245 nM
GI50 (M14): 63.1 nM
GI50 (OVCAR-8): 126 nM
GI50 (NCI-H23): 38.9 nM
GI50 (SF-295): 138 nM
GI50 [1]: 100 nM
TGI [3]: 525 nM

CNCCN[C@@H]1c2cc3c(cc2[C@@H](c2cc(OC)c(O)c(OC)c2)[C@H]2C(=O)OC[C@@H]21)OCO3
GI50 (ACHN; Homo sapiens, ACHN): 66.1 nM
GI50 (DU-145; Homo sapiens, DU-145): 363 nM
GI50 (HCC 2998; Homo sapiens, HCC 2998): 269 nM
GI50 (M14; Homo sapiens, M14): 398 nM
GI50 (MCF7; Homo sapiens, MCF7): 14.4 nM
GI50 (MOLT-4; Homo sapiens, MOLT-4): < 10 nM
GI50 (OVCAR-8; Homo sapiens, OVCAR-8): 309 nM
GI50 (NCI-H23; Homo sapiens, NCI-H23): 162 nM
GI50 (SF-295; Homo sapiens, SF-295): 29.5 nM
GI50 [1]: 240 nM
LC50 [2]: 38900 nM
TGI [3]: 3020 nM
